The source of these data is patent US5939447A, “Substituted benzopyrans” (SmithKline Beecham Corporation, priority 1998, dated 1999).

Data set [1] can be described thus: assays predictive of utility in treating asthma.
A short description of data set [2]: incubation of pranlukast with liver microsomes from rats or mice. Format: in vitro ADME. To be noted: rat or mouse liver microsomes; for metabolite formation from pranlukast: high concentrations of pranlukast (50 uM).
A short description of data set [3]: incubation of pranlukast with human liver S9 from donor H51. Format: in vitro ADME. Here is the method: Samples from the human S9 incubations were received as a 1:1 mixture of incubation media and acetonitrile. In order to reduce the relative organic content to about 25%, the samples were diluted with an equal volume of water prior to HPLC/MS and HPLC/MS/MS analysis. Samples from the microsomal incubations were also received as a 1:1 mixture of incubation media and acetonitrile. The relative organic content was however reduced to about 25% by evaporation following the centrifugation step.
Retention times observed in the ion chromatograms for m/z 498 and 482 (pranlukast) correlate well with those in the radiochromatogram. […] Therefore, in the CID spectra of the two monohydroxylated metabolites and the parent compound, the precursor and fragment ions are all shifted by +2 amu due to the predominance of the [^14 C] label. The observed fragmentation patterns are identical to the standards and confirmed the presence of pranlukast, as well as two monohydroxylated metabolites.

Data set [4] can be described thus: incubation of pranlukast with liver microsomes from dogs. Format: in vitro ADME. To be noted: dog liver microsomes. Background: Liver microsomes are vesicles of endoplasmic reticulum, rich in cytochrome P450 enzymes.
Data set [5] can be described thus: human radiolabel study of pranlukast (recovery in feces, metabolites in feces and plasma). Format: in vivo. To be noted: for plasma concentrations of metabolite in humans: human plasma, limited data from the single radiolabelled study.
Data set [6] is described as follows: incubation with human liver microsomes. Format: in vitro ADME. As to conditions: human liver microsomes and NADPH. As for the experimental part:
From an evaluation of a battery of human liver microsomes, it was evident that some human livers have enhanced activity towards benzylic hydroxylation. It appears that benzylic and aryl hydroxylation are performed by different P450 enzymes but which enzyme(s) is currently not known.
Preparation of Formula (I) Using Human Hepatic Microsomes:
The incubations were performed with a final volume of 100 mL in a shaking water bath at a temperature of approximately 37° C. Each incubation contained approximately 400 ug/mL of microsomal protein (H51), 0.5 mL 2 mM pranlukast in a 16% w/v encapsin solution containing 1.5% w/v sodium bicarbonate. The incubation volume was adjusted to 75 mL with 50 mM potassium phosphate buffer (pH 7.4). Following a 5 minute pre-incubation at approximately 37° C., the reaction was initiated by the addition of 25 mL of pre-warmed cofactor solution (approximately 1.7 mg NADP, 7.8 mg glucose 6-phosphate and 6 units of glucose 6-phosphate dehydrogenase per mL of 2% (w/v) sodium hydrogen carbonate). […] The putative benzyl hydroxy metabolite was subsequently isolated and analysed as described below. […]
The incubation was performed with a final volume of […] in a shaking water bath at a temperature of approximately 37° C. […] The putative dihydroxymetabolite formed was subsequently analysed and isolated as described below.

For `O=C(Nc1cccc2c(=O)cc(-c3nnn[nH]3)oc12)c1ccc(OCCCC(O)c2ccccc2)cc1` (centres unmarked) [Formula (I), 4-oxo-8-[4-(4-hydroxy-4-phenylbutoxy)benzoylamino]-2-tetrazol-5-yl-4H-1-benzopyran], in data set [1], the “activity in assays predictive of utility in treating asthma and other diseases which can be treated by pranlukast” value is “active”. Also, the “metabolite formation from pranlukast” value in data set [2] is on record as “detectable”; in data set [3] it was “major metabolites”; in data set [4] it was “only very small amounts”. In data set [3], the “dependence of metabolite formation on NADPH” value was “dependent on the presence of NADPH”. Besides, in data set [5] (human), the sulfation in humans entry is listed as “no evidence for sulfation”. The “plasma concentrations of metabolite in humans” value in data set [5] was “measurable plasma concentrations in humans”; in data set [5] (listed as benzylhydroxy), “measurable in human plasma”.
In the case of `O=C(Nc1cccc2c(=O)cc(-c3nnn[nH]3)oc12)c1ccc(OCCCCc2ccccc2)cc1` [pranlukast, reference compound], in data set [2], the predominant metabolic pathway result is recorded as “hydrolysis of the amide bond in the center of the molecule is the predominant metabolic pathway”. Also, the absorption result in data set [5] (human) is given as “poor absorption”. In data set [5] (human, benzylic hydroxylation), the “route of metabolism in humans” value is “major route of metabolism in humans”. The dose excreted in data set [5] (human, feces, after pranlukast, read-out: administered radiolabel recovered in feces as the named species) is roughly 84%. Besides, in data set [5] (human, total radiolabel after pranlukast), the “administered radiolabel recovered in feces” value turned out to be 98.4%.
Turning to `O=C(Nc1cccc2c(=O)cc(-c3nnn[nH]3)oc12)c1ccc(OCCCC(O)c2ccc(O)cc2)cc1` (centres unmarked) [Formula (II), 4-oxo-8-[4-(4-hydroxy-4-(4-hydroxyphenyl)butoxy)benzoylarnino]-2-tetrazol-5-yl-4H-1-benzopyran], the “activity in assays predictive of utility in treating asthma and other diseases which can be treated by pranlukast” value in data set [1] is listed as “active”. Moreover, the “metabolite formation from pranlukast” value in data set [2] is reported as “detectable”; in data set [4] it was “form the arylhydroxy species”. The “metabolite generated in vitro from the 4-hydroxyphenyl pranlukast analog” value in data set [6] was “generated in vitro”. For the same molecule, the sulfation in humans entry in data set [5] (human) was “appears to be sulfated in humans”. Further, in data set [5] (human feces), the “presence of metabolite in human fecal samples” value is on record as “found in human fecal samples”. For the same molecule, the “plasma concentrations of metabolite in humans” value in data set [5] is reported as “measurable in human plasma”.
